Measurements reported in US20090012152A1, “Use of Tetramic Acid Derivatives for Controlling Insects from the Genus of the Plane Lice (Sternorrhyncha)” (Bayer CropScience Aktiengesellschaft, priority 2005, published 2009).

What was measured:
Type in all cases: in vivo
Dysaphis plantaginea [1] = assay: Example 41: apple trees treated against Dysaphis plantaginea (Henderson and Tilton); settings: live animals on shoots, % a.i.: imidacloprid 0.007, I-9 0.0144, I-2 0.0144; for Effect (%) 7 d: 7 d after treatment; for Effect (%) 14 d: 14 d after treatment
Method: (§1) In three replications, three about 8-year-old apple trees of the cultivar “Golden Delicious” are treated eradicatively against Dysaphis plantaginea and Aphis pomi. The application is carried out using a motor-operated barrow-mounted sprayer. Here, the active compounds Example (I-9) (240 SC) and Example (I-2) (240 SC) in the stated amount are tested against the commercial standard imidacloprid (200 SL), at the stated application rate. The application rate is 1200 l of water/ha.
(§2) Evaluation is carried out before and also 7 d and 14 d after the treatment by counting the live animals on the shoots. The efficacy is then calculated by calculating the effect on the population in percent according to Henderson and Tilton.

Aphis pomi = assay: Example 41: apple trees treated against Aphis pomi (Henderson and Tilton); settings: live animals on shoots, % a.i.: imidacloprid 0.007, I-9 0.0144, I-2 0.0144; for Effect (%) 7 d: 7 d after treatment; for Effect (%) 14 d: 14 d after treatment
Method: as §1, §2

Aphis fabae = assay: Example 51: broad beans treated against Aphis fabae; settings: nymphs on leaves, g a.i./ha: Pirimor 250, I-9 36, I-2 36, I-4 42; for Kill (%) 7 d: 7 d after treatment; for Kill (%) 15 d: 15 d after treatment
Method: In three replications, plots of a size of 10 m^2 with broad beans of the cultivar “Fruhe Weisskeimige” are treated against Aphis fabae. The application is carried out using a knapsack sprayer operated with pressurized air. Here, the active compounds Example (I-9) (240 SC), Example (I-2) (240 SC) and Example (I-4) (240 SC), in a tank mix with 0.2% of rapeseed oil methyl ester (500 EW), and the commercial standard Pirimor (50 WG) are tested at the stated application rates. Application is carried out once. The application rate is 500 l of water/ha.
Evaluation is carried out 7 and 15 days after the treatment by rating the kill of the nymphs on the leaves.

Aleurodes citri = assay: Example 31: orange tree treated against Aleurodes citri; settings: on leaves, g a.i./ha/m crown height: imidacloprid 75, I-4 72; for Kill (%) 7 d: 7 d after treatment; for Kill (%) 14 d: 14 d after treatment; for Kill (%) 21 d: 21 d after treatment
Method: In four replications, in each case one orange tree of the cultivar “Newhall” is treated against Aleurodes citri. Here, the active compound Example (I-4) (240 SC) is, at the stated application rate, tested against the commercial standard imidacloprid. The active compounds are applied in a tank mix with 0.5% a.i. of Oliocin (700 EW), at an application rate of 1500 l of water/ha. The application is carried out using a motor-operated knapsack sprayer.
Evaluation is carried out 7, 14 and 21 days after the treatment by rating the kill of the animals on the leaves.

[2] = test system: Trialeurodes vaporariorum; assay: Example 34: tomatoes treated against Trialeurodes vaporariorum; settings: larvae on leaves, % a.i.: imidacloprid 0.015, I-9 0.0144, I-4 0.0144
Method: In three replications, plots of a size of 5 m^2 with tomatoes of the cultivar “Rio Grande” are treated against Trialeurodes vaporariorum. The application is carried out using a motor-operated knapsack apparatus. Here, the active compounds Example (I-9) (240 SC) and Example (I-4) (240 SC) and the commercial standard imidacloprid (200 SL) are tested at the stated application rates. The application rate is 1000 l of water/ha. Three applications are carried out, at an interval of 11 or 10 days.
Evaluation is in each case carried out 7 or 10 days after each treatment, by rating the kill of the larvae on the leaves.

Dysaphis plantaginea [3] = assay: Example 40: apple trees treated against Dysaphis plantaginea; settings: population on shoots, % a.i.: imidacloprid 0.007, I-9 0.0144, I-4 0.0144; for Kill (%) 14 d: 14 d after treatment; for Kill (%) 21 d: 21 d after treatment
Method: In three replications, three about 22-year-old apple trees of the cultivar “Golden Delicious” are treated eradicatively against Dysaphis plantaginea and Aphis pomi. The application is carried out using a motor-operated barrow-mounted sprayer. Here, the active compounds Example (I-9) (240 SC) and Example (I-4) (240 SC) in the stated amount are tested against the commercial standard imidacloprid (200 SL), at the stated application rate. The application rate is 1200 l of water/ha.
Evaluation is carried out 14 d and 21 d after the treatment by rating the kill of the population on the shoots.

Toxoptera citricida = assay: Example 45: orange tree treated against Toxoptera citricida; settings: on leaves, % a.i.: imidacloprid 0.0125, I-9 0.0144, I-4 0.0144; for Kill (%) 6 d: 6 d after treatment; for Kill (%) 20 d: 20 d after treatment
Method: In three replications, in each case one about 8-year-old orange tree of the cultivar “Navel” is treated against Toxoptera citricida. Here, the active compounds Example (I-9) (240 SC) and Example (I-4) (240 SC), in a tank mix with 0.1% a.i. of Marlipal, are tested against the commercial standard imidacloprid (350 SC), at the stated application rates. The application is carried out using a motor-operated knapsack sprayer, the application rate being 6.7 l of water/plant.
Evaluation is carried out 6 and 20 days after the treatment by rating the kill of the animals on the leaves.

Myzus persicae = assay: Example 47: peach trees infested with Myzus persicae; settings: live animals on shoots, Henderson and Tilten, g a.i./ha/m crown height: imidacloprid 25, I-4 24; for Effect (%) 7 d: 7 d after application; for Effect (%) 14 d: 14 d after application; for Effect (%) 21 d: 21 d after application
Method: In three replications, under practical conditions, about 18-year-old peach trees of the cultivar “Vivian” infested with Myzus persicae are treated with Example (I-4) (240 SC) in a tank mix with 0.2% a.i. of rapeseed oil methyl ester (500 EW) in comparison to the commercial standard imidacloprid 200 SL, at the stated application rates. The application is carried out using a motor-operated knapsack sprayer. The application rate is 1000 l of water/ha.
Evaluation is carried out 7, 14 and 21 days after the application by counting the live animals on the shoots. The efficacy is then calculated by calculating the effect on the population in percent according to Henderson and Tilten.

Aphis gossypii = assay: Example 52: melons treated against Aphis gossypii; settings: on shoots, g a.i./ha: imidacloprid 100, I-4 48; for Kill (%) 3 d: 3 d after treatment; for Kill (%) 7 d: 7 d after treatment
Method: In three replications, plots of a size of 15 m^2 with melons are treated against Aphis gossypii. The application is carried out using a knapsack sprayer operated with pressurized air. Here, the active compound Example (I-4) (240 SC), in a tank mix with 0.1% a.i. of rapeseed oil methyl ester (500 EW), and the standard imidacloprid (200 SL) are applied at the stated application rates. The application rate is 500 l of water/ha.
Evaluation is carried out 3 days and 7 days after the treatment by rating the kill of the animals on the shoots.

| SMILES | Effect (%) 7 d (Dysaphis plantaginea [1]) | Effect (%) 14 d (Dysaphis plantaginea [1]) | Effect (%) 7 d (Aphis pomi) | Effect (%) 14 d (Aphis pomi) | Kill (%) 7 d (Aphis fabae) | Kill (%) 15 d (Aphis fabae) | Kill (%) 7 d (Aleurodes citri) | Kill (%) 14 d (Aleurodes citri) | Kill (%) 21 d (Aleurodes citri) | Kill (%) 7 d after the 2nd treatment [2] | Kill (%) 10 d after the 1st treatment [2] | Kill (%) 10 d after the 3rd treatment [2] | Kill (%) 14 d (Dysaphis plantaginea [3]) | Kill (%) 21 d (Dysaphis plantaginea [3]) | Kill (%) 6 d (Toxoptera citricida) | Kill (%) 20 d (Toxoptera citricida) | Effect (%) 7 d (Myzus persicae) | Effect (%) 14 d (Myzus persicae) | Effect (%) 21 d (Myzus persicae) | Kill (%) 3 d (Aphis gossypii) | also measured |
| --- | --- | --- | --- | --- | --- | --- | --- | --- | --- | --- | --- | --- | --- | --- | --- | --- | --- | --- | --- | --- | --- |
| CCOC(=O)OC1=C(c2cc(C)ccc2Br)C(=O)NC12CCC(OC)CC2 (stereo not drawn) [Example (I-2)] | 92.3% | 99.2% | 99.1% | 97.1% | 98.6% | 100% |  |  |  |  |  |  |  |  |  |  |  |  |  |  |  |
| CCOC(=O)OC1=C(c2cc(C)ccc2C)C(=O)NC12CCC(OC)CC2 (stereo not drawn) [Example (I-4)] |  |  |  |  | 100% | 100% | 90.9% | 99.5% | 99.9% | 100% | 81.9% | 94.3% | 99.3% | 100% | 97% | 97% | 94.0% | 98.9% | 93.3% | 94.7% | Kill (%) 7 d (Aphis gossypii): 100% |
| O=[N+]([O-])NC1=NCCN1Cc1ccc(Cl)nc1 [imidacloprid, reference compound] | 99.6% | 99.5% | 99% | 83.5% |  |  | 98.4% | 99.6% | 99.4% | 88.4% | 53.5% | 67.5% | 97.6% | 99.8% | 99% | 94% | 97.6% | 95.8% | 78.1% | 98.2% | Kill (%) 7 d (Aphis gossypii): 100% |
